Earlier results as cited in patent publication US6001882A (priority 1997, dated 1999).

What was measured:
[1] = cited from earlier work
psoriasis = conditions: systemic, with long wavelength ultraviolet light; cited from earlier work

Row | Compound | conversion on exposure to visible light [1] | amelioration of psoriasis (psoriasis)
1 | Cc1cc(O)c2c(=O)c3c(O)cc(O)c4c5c(O)cc(O)c6c(=O)c7c(O)cc(C)cc7c(c65)c(c2c1)c34 [protohypericin] | converted to hypericin upon exposure to visible light | 
2 | C=Cc1c2[n-]c(c1C)/C=c1\[n-]/c(c(C)c1C=C)=C\c1[n-]c(c(CCC(=O)O)c1C)/C=c1\[n-]c(c(C)c1CCC(=O)O)=C2.[Sn+4] [tin-protoporphyrin] |  | effects amelioration of psoriasis in psoriatic patients
